Results published in PubChem BioAssay (NCI).
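1) Cells in 96-well plates. 2) Compound, 48 h, 5 concentrations. 3) Linear interpolation between surrounding doses. 4) Unreached endpoint = highest concentration. Definition used: TGI = concentration required for complete inhibition of growth.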

Tests used:
Test in all cases: NCI anticancer screen, dose series, 48 h
[1] = test system: OVCAR-5 ovarian
[2] = test system: HL-60(TB) leukemia
[3] = test system: BT-549 breast
[4] = test system: HCC-2998 colon
[5] = test system: OVCAR-8 ovarian
[6] = test system: SF-295 CNS
[7] = test system: MCF7 breast
[8] = test system: NCI-H23 lung
[9] = test system: NCI-H460 lung
[10] = test system: LOX IMVI melanoma
[11] = test system: UO-31 renal
[12] = test system: KM12 colon
[13] = test system: 786-0 renal
[14] = test system: MDA-MB-231 breast
[15] = test system: CCRF-CEM leukemia
[16] = test system: MDA-N
[17] = test system: ACHN renal
[18] = test system: OVCAR-3 ovarian
[19] = test system: PC-3 prostate
[20] = test system: HOP-92 NSCLC
[21] = test system: SNB-75 CNS
[22] = test system: SW-620 colon
[23] = test system: HCT-15 colon
[24] = test system: SF-539 CNS
[25] = test system: NCI-H226 lung
[26] = test system: SF-268 CNS
[27] = test system: T-47D breast
[28] = test system: SK-OV-3 ovarian
[29] = test system: MOLT-4 leukemia
[30] = test system: OVCAR-4 ovarian
[31] = test system: CAKI-1 renal
[32] = test system: UACC-62 melanoma
[33] = test system: MALME-3M melanoma
[34] = test system: SK-MEL-5 melanoma
[35] = test system: HT29 colon
[36] = test system: EKVX NSCLC
[37] = test system: UACC-257 melanoma
[38] = test system: HCT-116 colon
[39] = test system: TK-10 renal
[40] = test system: MDA-MB-435
[41] = test system: K-562 leukemia
[42] = test system: A498 renal
[43] = test system: RXF 393 renal
[44] = test system: NCI/ADR-RES ovarian
[45] = test system: SN12C renal
[46] = test system: SNB-19 CNS
[47] = test system: HOP-62 NSCLC
[48] = test system: A549 NSCLC
[49] = test system: DU-145 prostate
[50] = test system: SK-MEL-2 melanoma
[51] = test system: COLO 205 colon
[52] = test system: RPMI-8226 leukemia
[53] = test system: U251 CNS
[54] = test system: M14 melanoma
[55] = test system: NCI-H522 lung
[56] = test system: HS 578T breast
[57] = test system: SK-MEL-28 melanoma
[58] = test system: IGROV1 ovarian

Measured: TGI

CC1CC[C@@H](C(C)C)[C@H](Oc2nnc(C3OC(CO)C(O)C3O)o2)C1 (some centres undefined)
not listed: [54] | [55] | [56] | [57] | [58]
> 100 µM: all other assays above

COc1ccc(NC(=O)/C(=N\NC(=O)C[n+]2ccccc2)c2c(O)c3ccc(O)cc3oc2=O)c([N+](=O)[O-])c1
not listed: [43] | [47]
> 100 µM: all other assays above
